According to PMC3795758, “Biochemical and Molecular Characterization of a Serine Keratinase from Brevibacillus brevis US575 with Promising Keratin-Biodegradation and Hide-Dehairing Activities” (PLoS ONE, 2013):

System: T1, KERUS
T1 construct: native extracellular enzyme purified from culture supernatant; mature form 275 aa of a 383-aa pre-pro-enzyme (pre 29 aa, pro 79 aa removed)
Assay: esterase activity, absorbance at […] nm, Lineweaver-Burk
Format: biochemical, Brevibacillus brevis
Conditions: pH 8, 40°C, 10% (v/v) DMSO, 1% (v/v) Triton X-100

## CCOC(=O)[C@H](CCCN=C(N)N)NC(=O)c1ccccc1 [BAEE]
  Km: 655 ± 33 µM
